According to patent publication US20230278972A1, “SUBSTITUTED HALOALKYL SULFONANILIDE HERBICIDES” (FMC Corporation, priority 2020, published 2023):

How the values were obtained:
Assay type in all cases: in vivo
[1] = tested on: galium (catchweed bedstraw, Galium aparine); test: Test A postemergence, galium; settings: Postemergence
How it was run: (§1)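 Greenhouse pot test in a loam–sand blend; compounds delivered in a non-phytotoxic solvent carrying a surfactant, applied either as a directed spray to soil at seeding or over seedlings 2 to 10 cm high with one to two leaves.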

[2] = tested on: barnyardgrass (Echinochloa crus-galli); test: Test A preemergence, barnyardgrass; settings: Preemergence; for Plant response rating, Barnyardgrass: 0 to 100 scale (0 no effect, 100 complete control); for Barnyardgrass plant response rating: visual injury on 0 to 100 scale (0 no effect, 100 complete control), approximately 10 days
How it was run: (§2)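 Postemergence ratings come from foliar sprays onto one- to two-leaf plants of 2 to 10 cm grown in loam/sand; preemergence ratings come from a directed spray onto the soil of newly seeded pots. Formulation was a surfactant-containing non-phytotoxic solvent blend.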

[3] = tested on: barnyardgrass (Echinochloa crus-galli); test: Test A postemergence, barnyardgrass; settings: Postemergence
How it was run: as §1

[4] = tested on: corn (Zea mays); test: Test A postemergence, corn; settings: Postemergence
How it was run: as §2

[5] = tested on: ragweed (common ragweed, Ambrosia artemisiifolia); test: Test A postemergence, ragweed; settings: Postemergence
How it was run: as §2

[6] = tested on: kochia (Bassia scoparia); test: Test A preemergence, kochia; settings: Preemergence; for Plant response rating, Kochia: 0 to 100 scale (0 no effect, 100 complete control); for Kochia plant response rating: visual injury on 0 to 100 scale (0 no effect, 100 complete control), approximately 10 days
How it was run: as §2

[7] = tested on: Foxtail, Giant (giant foxtail, Setaria faberi); test: Test A postemergence, Foxtail, Giant; settings: Postemergence
How it was run: as §2

[8] = tested on: Ryegrass, Italian (Italian ryegrass, Lolium multiflorum); test: Test A postemergence, Ryegrass, Italian; settings: Postemergence
How it was run: as §2

[9] = tested on: pigweed (Amaranthus retroflexus); test: Test A postemergence, pigweed; settings: Postemergence
How it was run: as §2

[10] = tested on: blackgrass (Alopecurus myosuroides); test: Test A postemergence, blackgrass; settings: Postemergence
How it was run: as §2

[11] = tested on: Ryegrass, Italian (Italian ryegrass, Lolium multiflorum); test: Test A preemergence, Ryegrass, Italian; settings: Preemergence; for Plant response rating, Ryegrass, Italian: 0 to 100 scale (0 no effect, 100 complete control); for Ryegrass, Italian plant response rating: visual injury on 0 to 100 scale (0 no effect, 100 complete control), approximately 10 days
How it was run: as §2

[12] = tested on: ragweed (common ragweed, Ambrosia artemisiifolia); test: Test A preemergence, ragweed; settings: Preemergence; for Plant response rating, Ragweed: 0 to 100 scale (0 no effect, 100 complete control); for Ragweed plant response rating: visual injury on 0 to 100 scale (0 no effect, 100 complete control), approximately 10 days
How it was run: as §2

[13] = tested on: Foxtail, Giant (giant foxtail, Setaria faberi); test: Test A preemergence, Foxtail, Giant; settings: Preemergence; for Plant response rating, Foxtail, Giant: 0 to 100 scale (0 no effect, 100 complete control); for Foxtail, Giant plant response rating: visual injury on 0 to 100 scale (0 no effect, 100 complete control), approximately 10 days
How it was run: as §2

[14] = tested on: kochia (Bassia scoparia); test: Test A postemergence, kochia; settings: Postemergence
How it was run: as §2

[15] = tested on: wheat (Triticum aestivum); test: Test A postemergence, wheat; settings: Postemergence
How it was run: as §1

[16] = tested on: pigweed (Amaranthus retroflexus); test: Test A preemergence, pigweed; settings: for Plant response rating, Pigweed: 0 to 100 scale (0 no effect, 100 complete control); for Pigweed plant response rating: visual injury on 0 to 100 scale (0 no effect, 100 complete control), approximately 10 days
How it was run: as §1

[17] = 31 g ai/ha, visual injury on 0 to 100 scale (0 no effect, 100 complete control), approx. 10 days
[18] = 125 g ai/ha, 0 to 100 scale (0 no effect, 100 complete control)
[19] = 31 g ai/ha, visual injury, approx. 10 days
[20] = 500 g ai/ha, visual injury vs untreated controls after approx. 10 days, 0 to 100 scale (0 no effect, 100 complete control)
[21] = 125 g ai/ha, visual injury, approx. 10 days
[22] = 500 g ai/ha, visual injury approx. 10 days, 0 to 100 scale (0 no effect, 100 complete control)
[23] = 125 g ai/ha, visual injury approx. 10 days, 0 to 100 scale (0 no effect, 100 complete control)
[24] = 500 g ai/ha, visual injury, 0 to 100 scale (0 no effect, 100 complete control), approx. 10 days

Cc1cc(C)c(C2=NOC3(C2)CC(C)CC(C)C3)cc1NS(=O)(=O)C(F)(F)F (single isomer, unassigned) [Compound 168]
90: Plant response rating, Galium [1, 18]
80: Plant response rating, Pigweed [9, 18]
0: Plant response rating, Barnyardgrass [2, 19] | Plant response rating, Corn [4, 17] | Plant response rating, Corn [4, 18] | Plant response rating, Ragweed [5, 17] | Plant response rating, Kochia [6, 19] | Plant response rating, Foxtail, Giant [7, 17] | Plant response rating, Ryegrass, Italian [8, 17] | Plant response rating, Blackgrass [10, 17] | Plant response rating, Ryegrass, Italian [11, 19] | Plant response rating, Ragweed [12, 19] | Ragweed plant response rating ([12]; 125 g ai/ha) | Plant response rating, Foxtail, Giant [13, 19] | Foxtail, Giant plant response rating ([13]; 125 g ai/ha) | Plant response rating, Kochia [14, 17] | Plant response rating, Wheat [15, 17] | Plant response rating, Wheat [15, 18] | Plant response rating, Pigweed [16, 19]
60: Barnyardgrass plant response rating ([2]; 125 g ai/ha) | Plant response rating, Ragweed [5, 18] | Plant response rating, Pigweed [9, 17]
70: Plant response rating, Galium [1, 17] | Plant response rating, Barnyardgrass [3, 18]
30: Plant response rating, Barnyardgrass [3, 17] | Plant response rating, Ryegrass, Italian [8, 18]
10: Plant response rating, Foxtail, Giant [7, 18] | Plant response rating, Blackgrass [10, 18] | Plant response rating, Kochia [14, 18] | Pigweed plant response rating ([16]; 125 g ai/ha)
40: Ryegrass, Italian plant response rating ([11]; 125 g ai/ha)
20: Kochia plant response rating ([6]; 125 g ai/ha)

Cc1cc(F)c(C(=O)N(C)C)cc1N(S(=O)(=O)C(F)(F)F)S(=O)(=O)C(F)(F)F [Compound 216]
10: Plant response rating, Ragweed [5, 18]
100: Plant response rating, Kochia [6, 21] | Plant response rating, Pigweed ([16]; 500 g ai/ha)
40: Plant response rating, Barnyardgrass [2, 21] | Corn plant response rating [4, 20]
60: Ragweed plant response rating [5, 20]
20: Foxtail, Giant plant response rating [7, 20] | Plant response rating, Foxtail, Giant [13, 21] | Plant response rating, Kochia [14, 18]
70: Galium plant response rating [1, 20] | Ryegrass, Italian plant response rating [8, 20] | Pigweed plant response rating [9, 20] | Wheat plant response rating [15, 20]
0: Plant response rating, Barnyardgrass [3, 18] | Plant response rating, Foxtail, Giant [7, 18] | Plant response rating, Ryegrass, Italian [8, 18] | Plant response rating, Blackgrass [10, 18] | Plant response rating, Ragweed [12, 21] | Plant response rating, Wheat [15, 18]
90: Plant response rating, Kochia ([6]; 500 g ai/ha) | Plant response rating, Ryegrass, Italian ([11]; 500 g ai/ha) | Plant response rating, Foxtail, Giant ([13]; 500 g ai/ha)
80: Plant response rating, Barnyardgrass ([2]; 500 g ai/ha) | Plant response rating, Pigweed [16, 21]
50: Plant response rating, Galium [1, 18] | Barnyardgrass plant response rating [3, 20]
30: Plant response rating, Corn [4, 18] | Plant response rating, Pigweed [9, 18] | Blackgrass plant response rating [10, 20] | Plant response rating, Ryegrass, Italian [11, 21] | Plant response rating, Ragweed ([12]; 500 g ai/ha) | Kochia plant response rating [14, 20]

Cc1cc(C)c(C2=NOC3(CCCCCC3)C2)cc1NS(=O)(=O)C(F)(F)F [Compound 277]
90: Plant response rating, Barnyardgrass [3, 22] | Plant response rating, Kochia [6, 21] | Plant response rating, Foxtail, Giant [7, 22]
40: Plant response rating, Kochia [14, 22]
20: Plant response rating, Barnyardgrass [3, 18] | Plant response rating, Ragweed [5, 18]
80: Ragweed plant response rating ([12]; 500 g ai/ha)
0: Plant response rating, Ryegrass, Italian [8, 18] | Plant response rating, Wheat [15, 18]
60: Plant response rating, Ragweed [5, 22] | Plant response rating, Ryegrass, Italian [8, 22] | Plant response rating, Blackgrass [10, 22] | Plant response rating, Pigweed [16, 21]
10: Plant response rating, Corn [4, 18] | Plant response rating, Blackgrass [10, 18] | Plant response rating, Ragweed [12, 21] | Plant response rating, Kochia [14, 18]
70: Plant response rating, Corn [4, 22] | Plant response rating, Pigweed [9, 22] | Plant response rating, Wheat [15, 22]
100: Plant response rating, Galium [1, 18] | Plant response rating, Galium [1, 22] | Plant response rating, Barnyardgrass [2, 21] | Barnyardgrass plant response rating ([2]; 500 g ai/ha) | Kochia plant response rating ([6]; 500 g ai/ha) | Plant response rating, Ryegrass, Italian [11, 21] | Ryegrass, Italian plant response rating ([11]; 500 g ai/ha) | Plant response rating, Foxtail, Giant [13, 21] | Foxtail, Giant plant response rating ([13]; 500 g ai/ha) | Pigweed plant response rating ([16]; 500 g ai/ha)
30: Plant response rating, Foxtail, Giant [7, 18] | Plant response rating, Pigweed [9, 18]

CCn1cc(-c2cc(NS(=O)(=O)C(F)(F)F)c(C)cc2C)c(=O)n(C)c1=O [Compound 32]
0: Ragweed plant response rating ([12]; 125 g ai/ha)
10: Plant response rating, Corn [4, 23] | Plant response rating, Pigweed [9, 23]
70: Plant response rating, Galium [1, 23] | Plant response rating, Wheat [15, 23] | Plant response rating, Wheat [15, 24]
20: Plant response rating, Pigweed [9, 24] | Plant response rating, Kochia [14, 23] | Pigweed plant response rating ([16]; 125 g ai/ha)
60: Plant response rating, Ragweed [5, 24] | Kochia plant response rating ([6]; 125 g ai/ha) | Plant response rating, Pigweed ([16]; 500 g ai/ha)
100: Barnyardgrass plant response rating ([2]; 125 g ai/ha) | Plant response rating, Barnyardgrass ([2]; 500 g ai/ha) | Ryegrass, Italian plant response rating ([11]; 125 g ai/ha) | Plant response rating, Ryegrass, Italian ([11]; 500 g ai/ha) | Foxtail, Giant plant response rating ([13]; 125 g ai/ha) | Plant response rating, Foxtail, Giant ([13]; 500 g ai/ha)
50: Plant response rating, Ragweed ([12]; 500 g ai/ha)
90: Plant response rating, Galium [1, 24] | Plant response rating, Barnyardgrass [3, 23] | Plant response rating, Barnyardgrass [3, 24] | Plant response rating, Kochia ([6]; 500 g ai/ha) | Plant response rating, Foxtail, Giant [7, 23] | Plant response rating, Foxtail, Giant [7, 24] | Plant response rating, Ryegrass, Italian [8, 24] | Plant response rating, Blackgrass [10, 23] | Plant response rating, Blackgrass [10, 24]
30: Plant response rating, Ragweed [5, 23]
40: Plant response rating, Kochia [14, 24]
80: Plant response rating, Corn [4, 24] | Plant response rating, Ryegrass, Italian [8, 23]
